# Values of other authors in PubChem BioAssay AID1259409 (Chemical Carcinogenesis Research Information System (CCRIS), 2018).
# Tested on: rodent chemically induced tumor inhibition, incidence and multiplicity
# Test: CCRIS tumor inhibitor studies
# Conditions: Carcinogen: DIETHYLNITROSAMINE, 55-18-5, N-METHYL-N-NITROSOUREA, 684-93-5, N-BUTYL-N-(4-HYDROXYBUTYL)NITROSAMINE, 3817-11-6, 1,2-DIM, Carcinogen: DIETHYLNITROSAMINE, 55-18-5, N-METHYL-N-NITROSOUREA, 684-93-5, N-BUTYL-N-(4-HYDROXYBUTYL)NITROSAMINE, 3817-11-6, 1,2-DIM, Dose [Inhibitor]: 0, 0.3% IN DIET FOR 23 WK BEGINNING 1 WK POST CARCINOGEN TREATMENT (STUDY DURATION: 28 WK), Route [Inhibitor]: ORAL, Species: RAT, Strain/Sex: F344/MALE, Dose [Carcinogen]: 100 MG/KG BW DEN ONCE, 20 MG/KG BW MNU ONCE ON DAYS 6,9, AND 12, 0.05% BBN IN DRINKING WATER FOR FIRST TWO WK, 40 MG/KG, Dose [Carcinogen]: 100 MG/KG BW DEN ONCE, 20 MG/KG BW MNU ONCE ON DAYS 6,9, AND 12, 0.05% BBN IN DRINKING WATER FOR FIRST TWO WK, 40 MG/KG, Promoter: NONE USED
smiles,measurement,setting,value
C[C@]12CC[C@H](O)CC1=CC[C@@H]1[C@@H]2CC[C@]2(C)C(=O)CC[C@@H]12,"tumour outcome (control, treated, inhibition, significance)","Target Tissue: Type of Lesion: LIVER: HEPATOCELLULAR ADENOMA, HYPERPLASTIC NODULES","2/20 (10%), 15/20 (75%), -650%, p<0.01"
same,"tumour outcome (control, treated, inhibition, significance)",Target Tissue: Type of Lesion: LUNG: ADENOCARCINOMA,"1/20 (5%), 0/20 (0%), 100%, not significant"
same,"tumour outcome (control, treated, inhibition, significance)",Target Tissue: Type of Lesion: LUNG: ADENOMA,"8/20 (40%), 5/20 (25%), 38%, not significant"
same,outcome,Target Tissue: Type of Lesion: SMALL INTESTINE: ADENOCARCINOMA,"2/20 (10%), 0/20 (o%), 100%, not significant"
same,"tumour outcome (control, treated, inhibition, significance)",Target Tissue: Type of Lesion: SMALL INTESTINE: ADENOMA,"5/20 (25%), 2/20 (10%), 60%, not significant"
same,"tumour outcome (control, treated, inhibition, significance)",Target Tissue: Type of Lesion: THYROID: FOLLICULAR ADENOMA,"6/20 (30%), 1/20 (5%), 83%, p<0.05"
same,"tumour outcome (control, treated, inhibition, significance)",Target Tissue: Type of Lesion: THYROID: FOLLICULAR CARCINOMA,"1/20 (5%), 2/20 (10%), -100%, not significant"
